Non-standard residues stand in square brackets, D forms with d. Residues, ends and D or L forms follow the SMILES beside them.
Assays:
[1] = mice, after systemic administration; cited from earlier work
[2] = test system: c-Myc protein levels in PC-3 cells; assay: Western blot analysis of cellular c-Myc protein levels; assay type: cell-based, human
Method: Cells were seeded in 6 well plates at a density of 1×10^5 cells/well and grown to 75% confluence. Cells were treated with [D-Trp]CJ-15,208 at the indicated concentrations. Cells were then harvested as described above, and the cell pellets lysed in RIPA buffer consisting of 10 mM Tris HCl, pH 8.0, 150 mM NaCl, 1 mM EDTA, 1% Triton-X-100, 0.1% SDS, 1% sodium deoxycholate, and a protease inhibitor cocktail #P8340 (Sigma). Cell lysates were centrifuged at 13×1000 rpm for 15 min and the supernatants collected. The total protein concentration was measured in cell lysates using the standard Bradford assay. SDS gel electrophoresis was performed using 4-20% polyacrylamide gel (BioRad). Western blot analysis was performed using the following antibodies: i) c-Myc #5605 (rabbit monoclonal, 1:2000 dilution, (Cell Signaling Technologies)); actin #A2228 (mouse monoclonal, 1:5000 dilution (Sigma)), PP2A #610555 (mouse monoclonal 1:5000 dilution, BD Biosciences), p-PP2A #1155-1 (rabbit polyclonal, 1:5000 dilution (Epitomics)), Erk #9107 (mouse monoclonal, 1:2000 dilution (Cell Signaling Technologies) and p-Erk #4376 (rabbit monoclonal, 1:2000 (Cell Signaling Technologies)); Akt #2920 (mouse monoclonal, 1:2000 dilution (Cell Signaling Technologies)), p-Akt #4056 (rabbit monoclonal, 1:2000 (Cell Signaling Technologies)). The secondary antibodies, goat-anti-mouse #116-035-003 and goat-anti-rabbit #111-035-003, were obtained from Jackson ImmunoResearch Laboratory. Signal densities of the protein bands were determined using ImageJ software (NIH) and normalized to the internal loading control (actin).

PC-3 cells = assay type: cell-based, human; conditions: 48 h, read-out: IC50, cell growth
Method: Human prostate cancer PC-3 cells were cultured and maintained in EMEM (ATCC), non-prostate HEK (human embryonic kidney) cells were cultured in DMEM, human prostate cancer DU145, LNCaP, 22Rv1 cells were cultured in RPMI 1640 (ATCC), and normal BPH-1 prostate cells and prostate cancer C4-2 cell line were cultured in RPMI 1640 (ATCC), all containing 10% fetal bovine serum (Atlanta Biologicals) and 1% penicillin/streptomycin (Invitrogen). Cells were grown at 37° C. in humidified air with 5% CO2 and passaged every fourth to fifth day following trypsinization with trypsin/EDTA (Invitrogen).^16
PC-3, LNCaP, DU 145, 22Rv1, C4-2, BPH-1, and HEK cells were grown to a density of 2000 cells/well in 96 well plates and treated with [D-Trp]CJ-15,208 or other peptides for 24-72 h in duplicate. Media containing [D-Trp]CJ-15,208 was changed every 24 h. The proliferation of treated cells was determined using the cell proliferation reagent WST-1 (Roche) per the manufacturer's instructions and compared to […] control cells in 1% DMSO in media. After treatment with compound 10 μL of the reagent was added to the well in 100 μL culture media, and the cells incubated at 37° C. for 30 min. The absorbance of the media in each well was measured at […] using a plate reader (BioTek). The percentage cell proliferation was normalized to vehicle treated control cells calculated as: (mean absorbance of sample/mean absorbance of control cells)×100.^38
Each experiment was performed in triplicate unless otherwise stated in the figure legend. GraphPad Prism 5 was used to determine IC50 values. Data represent the mean value+/−SEM. Compound vs. vehicle treated cells in the cell cycle phase and apoptosis experiments (FIGS. 5-8) were compared using the student's t-test, with a two-tailed, unpaired method, using the Prism software. The effects of compound vs. vehicle treatment on protein levels (FIG. 10) were evaluated by one-way ANOVA with Dunnett's test for multiple comparisons.

[3] = cited from earlier work
[4] = mice, dose of 60 mg/kg; cited from earlier work

O=C1N[C@@H](Cc2ccccc2)C(=O)N2CCC[C@@H]2C(=O)N[C@@H](Cc2ccccc2)C(=O)N[C@H]1Cc1c[nH]c2ccccc12 [CJ-15,208, cyclo[Phe-D-Pro-Phe-Trp]] (cyclo(FWF[dP]))
blood-brain barrier penetration [1]: appear to penetrate the blood-brain barrier
decrease of cellular c-Myc protein levels ([2]; 50 μM (FIG. 1E lanes 4 and 5)): 5 fold
reduction of c-Myc protein levels ([2]; PC-3 cells, 10 μM, 48 h): approximately 50%
IC50 (PC-3 cells): 10.1 ± 0.9 µM
activity after oral administration [3]: active after oral administration
toxicity [4]: no evidence of toxicity

C=CCN1CC[C@]23c4c5ccc(O)c4O[C@H]2C(=O)CC[C@@]3(O)[C@H]1C5 [naloxone, reference compound]
effect on the decrease in c-Myc protein levels caused by [D-Trp]CJ-15,208 ([2]; PC-3 cells, 10 μM naloxone with 10 μM [D-Trp]CJ-15,208 (FIG. 1F lane 4 vs. lane 2)): did not alter the decrease
effect on c-Myc protein levels ([2]; PC-3 cells, 10 μM, 48 h (FIG. 1F lane 3)): no effect

CC[C@H](C)[C@@H]1NC(=O)[C@H](CCCNC(=N)N)NC(=O)[C@@H](NC(=O)[C@H](Cc2ccccc2)NC(=O)CNC(=O)CNC(=O)[C@H](Cc2ccc(O)cc2)NCc2ccccc2)CC(=O)NC[C@@H](C(=O)N[C@@H](CCCNC(=N)N)C(=O)N2CCC[C@H]2C(=O)N[C@@H](CCCCN)C(N)=O)NC1=O [zyklophin, reference compound]
effect on cellular c-Myc protein levels ([2]; 10 μM (FIG. 1E lane 3)): not decreased

dynorphin A-(1-13) (YGGFLRRIRPKP) [reference compound]
effect on cellular c-Myc protein levels ([2]; 1 μM (FIG. 1E lane 2)): not decreased
